What was measured:
[1] = DRUGMATRIX: Atrial Natriuretic Factor (ANF) radioligand binding (ligand: [125I] ANF (rat)); format: cell membranes, Cavia porcellus, Dunkin-Hartley, Adrenal gland, Membrane; conditions: Not Active = under 50% inhibition at 10 µM
Interstitial collagenase = molecular target: T1, Interstitial collagenase (Homo sapiens, UniProt P03956); format: tissue-based, Rheumatoid synovial fibroblasts;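 also: MMP-1 enzyme inhibition assay using a peptide substrate; in other assays of this panel Not Active means under 50% inhibition at 10 µM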
T1 sequence (P03956 whole entry): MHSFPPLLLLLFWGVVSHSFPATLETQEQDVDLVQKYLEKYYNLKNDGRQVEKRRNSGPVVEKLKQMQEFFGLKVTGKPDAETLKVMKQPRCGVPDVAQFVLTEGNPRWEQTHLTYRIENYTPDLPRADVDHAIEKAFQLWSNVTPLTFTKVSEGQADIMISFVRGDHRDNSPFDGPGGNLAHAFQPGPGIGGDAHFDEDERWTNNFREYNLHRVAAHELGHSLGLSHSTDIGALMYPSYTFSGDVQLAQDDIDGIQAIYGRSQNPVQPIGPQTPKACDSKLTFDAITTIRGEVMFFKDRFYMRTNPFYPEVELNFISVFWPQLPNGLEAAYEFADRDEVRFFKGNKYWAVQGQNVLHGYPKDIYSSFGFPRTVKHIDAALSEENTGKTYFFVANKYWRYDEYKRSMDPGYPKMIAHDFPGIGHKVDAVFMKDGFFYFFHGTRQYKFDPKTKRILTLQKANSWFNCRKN

Neutrophil elastase = molecular target: T2, Neutrophil elastase (Homo sapiens, UniProt P08246); format: tissue-based;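 also: inhibition of neutrophil elastase enzyme activity, measured with a p-nitroanilide-linked peptide substrate; in other assays of this panel Not Active means under 50% inhibition at 10 µM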
T2 sequence (P08246 whole entry): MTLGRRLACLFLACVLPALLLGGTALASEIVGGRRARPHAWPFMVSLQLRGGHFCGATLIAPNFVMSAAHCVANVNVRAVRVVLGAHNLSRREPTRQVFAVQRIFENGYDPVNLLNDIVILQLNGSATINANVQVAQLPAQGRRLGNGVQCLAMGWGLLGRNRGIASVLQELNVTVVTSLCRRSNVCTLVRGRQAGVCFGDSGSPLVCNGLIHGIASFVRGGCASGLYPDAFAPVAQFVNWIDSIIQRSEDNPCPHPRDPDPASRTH

Adenosine receptor A1 = molecular target: T3, Adenosine receptor A1 (Homo sapiens, UniProt P30542); format: cell membranes, CHO, Membrane; conditions: cho;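 also: radioligand binding assay at the adenosine A1 receptor, with DPCPX serving as the labelled ligand; in other assays of this panel Not Active means under 50% inhibition at 10 µM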
T3 sequence (P30542 whole entry): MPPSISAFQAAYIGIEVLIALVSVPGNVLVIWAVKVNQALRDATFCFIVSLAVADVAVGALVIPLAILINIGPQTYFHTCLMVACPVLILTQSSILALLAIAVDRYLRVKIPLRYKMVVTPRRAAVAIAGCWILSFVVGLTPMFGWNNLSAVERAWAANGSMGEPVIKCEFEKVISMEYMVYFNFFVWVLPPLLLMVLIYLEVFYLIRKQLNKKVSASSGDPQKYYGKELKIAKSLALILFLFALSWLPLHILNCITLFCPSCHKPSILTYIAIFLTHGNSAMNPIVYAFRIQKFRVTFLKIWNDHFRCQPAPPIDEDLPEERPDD

[2] = DRUGMATRIX: Tumor Necrosis Factor (TNF), Non-Selective radioligand binding (ligand: [125I] TNF-alpha); format: cell membranes, Membrane; conditions: u-937; Not Active = under 50% inhibition at 10 µM
[3] = DRUGMATRIX: ATPase, Na+/K+ enzyme inhibition (substrate: ATP); format: tissue-based, Sus scrofa, Heart; conditions: Not Active = under 50% inhibition at 10 µM
[4] = molecular target: T4, Nitric oxide synthase, inducible (Mus musculus, UniProt P29477); set-up: species or system Escherichia coli;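 also: inhibition of iNOS enzyme activity measured with L-arginine as substrate; in other assays of this panel Not Active means under 50% inhibition at 10 µM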
T4 sequence (P29477 whole entry): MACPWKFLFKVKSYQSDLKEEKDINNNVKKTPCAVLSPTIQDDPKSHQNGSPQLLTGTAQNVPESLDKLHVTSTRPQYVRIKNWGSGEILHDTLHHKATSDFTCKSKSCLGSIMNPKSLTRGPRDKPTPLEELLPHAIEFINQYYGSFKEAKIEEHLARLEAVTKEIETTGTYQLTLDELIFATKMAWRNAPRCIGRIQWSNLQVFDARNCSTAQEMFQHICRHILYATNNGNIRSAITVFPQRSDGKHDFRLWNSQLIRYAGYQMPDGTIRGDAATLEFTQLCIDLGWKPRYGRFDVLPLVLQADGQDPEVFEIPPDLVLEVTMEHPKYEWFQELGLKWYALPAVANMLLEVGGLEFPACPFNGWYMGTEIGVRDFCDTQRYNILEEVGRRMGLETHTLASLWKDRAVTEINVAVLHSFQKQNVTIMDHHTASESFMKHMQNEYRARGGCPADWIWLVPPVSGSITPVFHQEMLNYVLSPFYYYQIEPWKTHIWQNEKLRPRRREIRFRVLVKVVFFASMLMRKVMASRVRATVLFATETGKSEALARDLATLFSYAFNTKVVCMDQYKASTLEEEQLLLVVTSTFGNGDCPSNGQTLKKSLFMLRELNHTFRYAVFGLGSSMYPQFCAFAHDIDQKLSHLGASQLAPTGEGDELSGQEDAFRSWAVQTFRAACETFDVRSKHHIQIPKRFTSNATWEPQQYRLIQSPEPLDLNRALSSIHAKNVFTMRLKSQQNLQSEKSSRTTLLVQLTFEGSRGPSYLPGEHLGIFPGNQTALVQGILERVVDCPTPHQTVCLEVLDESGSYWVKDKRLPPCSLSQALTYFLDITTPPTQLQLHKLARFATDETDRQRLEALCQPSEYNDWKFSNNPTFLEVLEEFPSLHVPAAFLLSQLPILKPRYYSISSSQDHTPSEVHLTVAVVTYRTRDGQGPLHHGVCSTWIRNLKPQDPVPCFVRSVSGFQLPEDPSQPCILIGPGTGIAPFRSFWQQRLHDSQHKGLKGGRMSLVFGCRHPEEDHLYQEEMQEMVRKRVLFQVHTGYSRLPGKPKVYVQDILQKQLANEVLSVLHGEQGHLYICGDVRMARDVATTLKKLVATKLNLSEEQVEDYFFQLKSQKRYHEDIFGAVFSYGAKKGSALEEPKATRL

Nitric oxide synthase 1 = Nitric oxide synthase 1 (Rattus norvegicus, UniProt P29476); format: tissue-based, Cerebellum; also: in other assays of this panel Not Active means under 50% inhibition at 10 µM
Chain of Nitric oxide synthase 1 (P29476 whole entry): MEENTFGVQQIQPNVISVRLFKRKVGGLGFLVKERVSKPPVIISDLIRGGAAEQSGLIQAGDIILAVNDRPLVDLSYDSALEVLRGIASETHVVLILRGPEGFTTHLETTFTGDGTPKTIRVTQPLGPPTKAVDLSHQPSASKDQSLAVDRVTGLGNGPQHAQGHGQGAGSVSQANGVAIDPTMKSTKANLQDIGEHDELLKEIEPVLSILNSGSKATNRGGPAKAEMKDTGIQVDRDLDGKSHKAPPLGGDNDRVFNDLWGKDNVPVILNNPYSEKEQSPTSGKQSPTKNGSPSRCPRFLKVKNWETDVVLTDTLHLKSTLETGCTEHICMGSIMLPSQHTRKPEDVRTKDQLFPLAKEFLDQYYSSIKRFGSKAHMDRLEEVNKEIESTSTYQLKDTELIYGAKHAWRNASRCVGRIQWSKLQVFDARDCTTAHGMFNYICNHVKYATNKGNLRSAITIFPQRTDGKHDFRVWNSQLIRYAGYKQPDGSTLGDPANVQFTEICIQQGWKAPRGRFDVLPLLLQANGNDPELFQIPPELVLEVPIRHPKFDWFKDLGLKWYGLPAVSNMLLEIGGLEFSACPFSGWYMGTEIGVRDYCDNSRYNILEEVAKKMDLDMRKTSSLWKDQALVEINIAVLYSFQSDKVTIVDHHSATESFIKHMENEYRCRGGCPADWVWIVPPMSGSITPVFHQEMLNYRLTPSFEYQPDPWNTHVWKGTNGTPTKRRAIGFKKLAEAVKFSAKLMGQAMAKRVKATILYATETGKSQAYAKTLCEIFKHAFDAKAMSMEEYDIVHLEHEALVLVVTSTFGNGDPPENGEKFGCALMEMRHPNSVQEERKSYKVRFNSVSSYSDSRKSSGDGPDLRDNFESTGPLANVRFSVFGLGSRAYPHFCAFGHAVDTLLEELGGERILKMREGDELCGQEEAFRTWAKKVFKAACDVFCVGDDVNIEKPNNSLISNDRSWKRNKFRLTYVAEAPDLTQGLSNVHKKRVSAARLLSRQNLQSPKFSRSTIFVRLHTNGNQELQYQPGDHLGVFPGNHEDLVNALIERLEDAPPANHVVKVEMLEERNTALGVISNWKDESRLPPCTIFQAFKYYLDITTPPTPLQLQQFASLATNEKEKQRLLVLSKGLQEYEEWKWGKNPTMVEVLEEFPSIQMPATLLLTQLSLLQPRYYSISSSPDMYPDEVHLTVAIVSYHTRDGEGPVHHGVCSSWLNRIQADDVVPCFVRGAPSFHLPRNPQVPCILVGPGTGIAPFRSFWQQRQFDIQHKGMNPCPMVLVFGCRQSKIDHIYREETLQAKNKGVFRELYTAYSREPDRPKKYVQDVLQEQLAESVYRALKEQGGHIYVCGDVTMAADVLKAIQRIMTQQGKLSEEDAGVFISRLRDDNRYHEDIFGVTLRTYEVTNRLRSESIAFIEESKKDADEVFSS

[5] = DRUGMATRIX: Nicotinic Acetylcholine radioligand binding (ligand: [125I] Epibatidine); format: cell membranes, Membrane; conditions: imr-32; Not Active = under 50% inhibition at 10 µM

CC(=O)CCCCn1c(=O)c2c(ncn2C)n(C)c1=O [PENTOXIFYLLINE]
Not Active: IC50 [1] | Ki [1] | IC50 (Interstitial collagenase) | IC50 (Neutrophil elastase) | IC50 (Adenosine receptor A1) | IC50 [2] | Ki [2] | IC50 [3] | Ki [3] | IC50 [4] | IC50 (Nitric oxide synthase 1) | IC50 [5] | Ki [5]

C=C1C(=O)O[C@@H]2C3O[C@]3(C)CC/C=C(\C)CC[C@@H]12 (stereo partly specified)
Not Active: IC50 [1] | Ki [1] | IC50 (Interstitial collagenase) | IC50 (Neutrophil elastase) | IC50 (Adenosine receptor A1) | IC50 [2] | Ki [2] | IC50 [3] | Ki [3] | IC50 [4] | IC50 (Nitric oxide synthase 1) | IC50 [5] | Ki [5]

C=C(C)[C@@H]1[C@H]2OC(=O)[C@@H]1[C@]1(O)C[C@H]3O[C@]34C(=O)O[C@H]2[C@]14C [PICROTOXININ]
Not Active: IC50 [1] | Ki [1] | IC50 (Interstitial collagenase) | IC50 (Neutrophil elastase) | IC50 (Adenosine receptor A1) | IC50 [2] | Ki [2] | IC50 [3] | Ki [3] | IC50 [4] | IC50 (Nitric oxide synthase 1) | IC50 [5] | Ki [5]

CARBOPLATIN
Not Active: IC50 [1] | Ki [1] | IC50 (Interstitial collagenase) | Ki (Interstitial collagenase) | IC50 (Neutrophil elastase) | Ki (Neutrophil elastase) | IC50 (Adenosine receptor A1) | Ki (Adenosine receptor A1) | IC50 [2] | Ki [2] | IC50 [3] | Ki [3] | IC50 [4] | Ki [4] | IC50 (Nitric oxide synthase 1) | Ki (Nitric oxide synthase 1) | IC50 [5] | Ki [5]

c1ccc2c(c1)cc1ccc3cccc4ccc2c1c34
Not Active: IC50 [1] | Ki [1] | IC50 (Interstitial collagenase) | IC50 (Neutrophil elastase) | IC50 (Adenosine receptor A1) | IC50 [2] | Ki [2] | IC50 [3] | Ki [3] | IC50 [4] | IC50 (Nitric oxide synthase 1) | IC50 [5] | Ki [5]

CCCCOC(=O)c1ccc(N)cc1 [BUTAMBEN]
Not Active: IC50 [1] | Ki [1] | IC50 (Interstitial collagenase) | IC50 (Neutrophil elastase) | IC50 (Adenosine receptor A1) | IC50 [2] | Ki [2] | IC50 [3] | Ki [3] | IC50 [4] | IC50 (Nitric oxide synthase 1) | IC50 [5] | Ki [5]

Cc1ccccc1N1CCN(CCc2nnc3n2CCCC3)CC1 [DAPIPRAZOLE]
Not Active: IC50 [1] | Ki [1] | IC50 (Interstitial collagenase) | IC50 (Neutrophil elastase) | IC50 (Adenosine receptor A1) | IC50 [2] | Ki [2] | IC50 [3] | Ki [3] | IC50 [4] | IC50 (Nitric oxide synthase 1) | IC50 [5] | Ki [5]

Source: ChEMBL document CHEMBL1909046, “DrugMatrix in vitro pharmacology data”
